Measured values from patent US12029713B2, “Compositions and methods for the treatment of brain injury” (THE CHILDREN'S HOSPITAL OF PHILADELPHIA, priority 2013, dated 2024).

Key:
[1] = within one hour of administration; cited from earlier work
[2] = tested on: fluid percussion injury mice; experiment: Conditioned fear response (CFR) after fluid percussion injury, GTA oral gavage; assay type: in vivo, mouse; details: 5 mg/kg oral gavage for 5 days, CFR on day 7 (FIG. 5)
Description: A fluid percussion injury assay was performed. Briefly, a craniotomy was performed on anesthetized mice using a 3 mm trephine and a Luer-Hoc needle hub attached to the skull and capped. The following day, a fluid percussion injury device was employed to deliver a pulse of saline through the hub at a pressure between 1.4-2.14 atm, producing a mild to moderate percussion injury. Sham animals received all anesthesia and surgical procedures except for the fluid pulse.
Mice were allowed to recover for one day. Mice were then treated with 5 mg/kg of glyceryl triacetate (GTA) via oral gavage for 5 days. The conditioned fear response (CFR) assay was performed on day 7.

For `CC(=O)OCC(COC(C)=O)OC(C)=O` [GTA, glyceryl triacetate], the “increase of acetate levels in the brain” value [1] is listed as “over 15 fold” and the “fear response (CFR) compared to mice receiving the brain injury without treatment” value [2] is listed as “statistically superior”.
